B1: PDGFBB: Platelet derived growth factor BB added to cultured CTCs (protein, UniProt P01127 82-190, looked up)
Platelet-derived growth …: SLGSLTIAEPAMIAECKTRTEVFEISRRLIDRTNANFLVWPPCVEVQRCSGCCNNRNVQCRPTQVQLRPVQVRKIEIVRKKPIFKKATVTLEDHLACKCETVAAARPVT
modifications: BB homodimer
notes: Platelet derived growth factor BB added to cultured CTCs

Tests used:
HCT-15 cells = test: Cell proliferation / cell subpopulations in HCT-15 cell line after cytokines and cytokine cocktails (flow cytometry); type: cell-based; set-up: unit not given here; settings: HCT-15 cells after exposure to cytokine combinations
Procedure: Cell proliferation of cancer and/or cancer stem cell populations with selected cytokine and cytokine cocktails on serum starved colorectal carcinoma cell lines. Prior to incubation cells were stained with a cell proliferation dye, which binds stoichiometrically to DNA. Intensity of the dye decreased upon cell division thereby signifying cell proliferation.
Two authenticated colorectal carcinoma cell lines, HCT-15 and SW-620, were used to test the effect of different cytokine and cytokine cocktails, including IL-6, HGF, PGE-2, TGF-beta and MMP-9 alone or in a cocktail, on cell proliferation, EMT and cancer stem cell populations.
In order to evaluate stem cell populations, cells were synchronized by serum starvation for 72 hours before seeding in 24-well ultra low attachment plates at a density of 200,000 cells/well. Cells were then detached using trypsin EDTA and washed twice with PBS (without Calcium or Magnesium). A cell proliferation dye, eFluor 450 was used to label cells. Cells were grown with DMEM with high glucose and 2 mM Gluatmine without FBS in the presence of selected cytokines and or cytokine cocktails over a period of 72 hrs.
Cells that were grown in 5% serum were stained with the following antibody cocktails: CD24FITC, CD44PE and CD24FITC, CD133PE. Cells were also stained with a fixable live/dead efluor dye 506 to exclude dead cells. In parallel, cells were grown in the presence of 5% serum to evaluate CSC markers.
(§1) Cells were fixed in 1% Paraformaldehyde for 15 minutes at room temperature and run on Flowsight using 2 lasers (488 nm at 60 mW and 405 nm at 30 mW). For cell lines, 100,000 events were collected whilst for enriched CTCs all events were collected until the sample finished.
(§2) Flow cytometry data was analysed using IDEAS software. Double events, out of focus events, CD45PerePCy5.5 positive cells (in case of enriched CTCs), dead cells and non-nucleated events were eliminated from the fluorescence analysis of the cell population. FIG. 2 depicts scatterplots of flow cytometry experiments showing the enriched CTCs stained with an antibody containing CD44 after treatment with various cytokines and cytokine cocktails. Hoescht 33258 dye was used to stain nuclei in the case of the HCT-15 cell line and enriched CTCs. All experiments were stained with a fixable live/dead dye eFluor 506 to exclude dead cells.
To evaluate which cocktail combinations were most likely involved in cell proliferation of presumed quiescent stem cells or de-differentiated stein cell-like cells, four cytokines, IL-6, HGF, PGB-2 and TO were added singly or in pairs to HCT-15 cells. Results of combinations that influenced cell proliferation of HCT-15 cells in culture are presented. […] FIG. 4 depicts cell proliferation of subpopulations in the HCT-15 cell line after exposure to various cytokines and cytokine cocktails.

[1] = test system: enriched circulating tumour cells (CTCs); test: Cell proliferation / cancer stem cell markers in enriched CTCs from a patient with metastatic prostate cancer cultured with cytokine cocktails; type: cell-based, human; settings: for EpCAM+CD133+ gated subpopulation / EpCAM+CD133− gated subpopulation / EpCAM−CD133+ gated subpopulation / EpCAM−CD133− gated subpopulation: enriched CTCs (metastatic prostate cancer patient) cultured with cytokine or cytokine cocktail, flow cytometry, antibody cocktail EpCAM A488, CD133 PE, CD45 PerCPCy5.5, percentages of gated subpopulations; for proliferation of EpCAM-CD44+ cell sub-population: no serum, no cytokines 2.2%; for Cell population EpCAM+CD44+ / Cell population EpCAM+CD44− / Cell population EpCAM−CD44+ / Cell population EpCAM−CD44−: metastatic prostate cancer patient, cell culture period 8 days
Procedure: as §1
as §2, with “cocktails.” for “cocktails. Hoescht 33258 dye was used to stain nuclei in the case of the HCT-15 cell line and enriched CTCs. All experiments were stained with a fixable live/dead dye eFluor 506 to exclude dead cells.”
In order to determine if selected cytokines influence cell proliferation of circulating tumour cells (CTCs), whole blood was collected from a patient with metastatic prostate cancer. Circulating tumour cells were enriched from whole blood using RosetteSep CTC Enrichment cocktail. Briefly, samples of whole blood were incubated with RosetteSep (anti CD 56 for 20 minutes at room temperature). Phosphate buffered saline containing 2% Fetal Bovine Serum was added to the samples and layered on a Ficoll Paque gradient. After centrifugation, the supernatant which contained CTCs was washed twice with PBS containing 2% FBS. Equal volumes of the cell suspension were seeded into a 24-well ultra-low attachment polystyrene plate. […] FIG. 3 depicts scatterplots of flow cytometry experiments enriched CTCs stained with an antibody containing CD133 after treatment with various cytokines and cytokine cocktails.
FIG. 6 depicts cell proliferation of subpopulations in cultured CTCs after exposure to various cytokines and cytokine cocktails. Cells were stained using an antibody containing CD44 PE.
Cells were stained using an antibody containing CD133 PE.

SW-620 cells = SW-620 cells treated with cytokines then Irinotecan; flow cytometry for stem cell markers and apoptosis; type: cell-based, human; settings: SW-620, preliminary data
Procedure: SW-620 cells, a human colorectal adenocarcinoma cell line, were treated with cytokines alone or in combination including IL-6, TGF-beta, HGF, PGE-2, IL-6+PGE-2 and TGF-beta+HGF for 24 hours and compared to untreated SW-620 cells as control, Some treated and untreated SW-620 cells were then exposed to 2 μM Irinotecan for 36 hours at which point cells were harvested for flow cytometry to assess for stem cell markers and markers of apoptosis. The percentage of CD44+CD133− cells following treatment with various cytokine and cytokine cocktails is depicted in FIG. 10. Compared to non-cytokine treated cells, combinations with IL-6+PGE-2, and TGF-beta+HGF increased the number and percentage of cells that were CD44+CD133− as shown in FIG. 10 (stem cells). FIG. 11 depicts the percentage of CD44+CD133− cells following treatment with various cytokines and Irinotecan. Treatment with IL-6+Irinotecan and TGF+Irinotecan increased the percentage of CD44+CD133− stem cells to 2% (from zero in non-treated control cells) as shown in FIG. 11. FIG. 12 depicts the percentage of CD44+CD133− cells following treatment with various cytokine cocktails and Irinotecan. A combination of TGF+HGF+Irinotecan increased the percentage of CD44+CD133− stem cells to 2% (from zero in non-treated control cells) as shown in FIG. 12. […]

[2] = early use after coronary artery bypass surgery; cited from earlier work
breast cancer = settings: perioperative, 9-18 month period of greatest risk, compared to other analgesics or NSAIDs post-operatively; cited from earlier work
[3] = test system: B16 amelanotic melanoma model; settings: cited from earlier work
[4] = test system: enriched circulating tumour cells (CTCs); test: Enriched CTCs from a patient with colorectal cancer cultured with IL-6, IL-8 or PDGFBB (EpCAM/CD133 flow cytometry); type: cell-based, human; settings: for EpCAM+CD133+ gated subpopulation / EpCAM+CD133− gated subpopulation / EpCAM−CD133+ gated subpopulation / EpCAM−CD133− gated subpopulation: colorectal cancer patient
Description: A blood sample was collected from a patient with colorectal cancer six days after surgery, Blood samples were enriched for CTCs using RosetteSep CD 56 kit according to standard protocol. Prior to cell culture, cells were stained with the following antibody cocktail: EpCAM A488, CD133PE, CD 45 PerCP Cy5.5, and Lgr5-PE-Vio770. Cells were either cultured in low attachment well plates without cytokines (control cells) or with three different cytokines (IL-6, IL-8 or PDGFBB).
Flow cytometry data was analysed using IDEAS software. Double events, out of focus events, CD45PercPCy5.5 positive cells, dead cells and non-nucleated events were eliminated from the fluorescence analysis of the cell population. Hoescht 33258 dye was used to stain nuclei of enriched CTCs. All experiments were stained with a fixable live/dead dye eFluor 506 to exclude dead cells.

[5] = test system: premetastatic niche formation; settings: disruption of niche formation; cited from earlier work
colon cancer = settings: cited from earlier work

Molecule | CD24+CD44− cell subpopulation (HCT-15 cells) | CD44+CD24+ cell subpopulation (HCT-15 cells) | CD44+CD24− cell subpopulation (HCT-15 cells) | CD44−CD24− cell subpopulation (HCT-15 cells) | EpCAM+CD133+ gated subpopulation [1] | EpCAM+CD133− gated subpopulation [1] | EpCAM−CD133+ gated subpopulation [1] | EpCAM−CD133− gated subpopulation [1] | Cell population EpCAM+CD44+ ([1]; enriched CTCs) | Cell population EpCAM+CD44− ([1]; enriched CTCs) | Cell population EpCAM−CD44+ ([1]; enriched CTCs) | Cell population EpCAM−CD44− ([1]; enriched CTCs) | EpCAM+CD133+ gated subpopulation [4] | EpCAM+CD133− gated subpopulation [4] | EpCAM−CD133+ gated subpopulation [4] | EpCAM−CD133− gated subpopulation [4] | other results
CCCCC[C@H](O)/C=C/[C@H]1[C@H](O)CC(=O)[C@@H]1C/C=C\CCCC(=O)O [PGE-2, prostaglandin E2, reference compound] | 58.7 | 7.3 | 0.61 | 32.4 | 10.4% | 0% | 86.7% | 2.61% | 27.2 percentage of gated cells | 1.75 percentage of gated cells | 4.23 percentage of gated cells | 65.5 percentage of gated cells | – | – | – | – | proliferation of EpCAM-CD44+ cell sub-population ([1]; enriched CTCs, 8 days culture): 4.23 % gated; enrichment of Irinotecan treated cells for cancer stem cells above non-cytokine treated controls (SW-620 cells): enriched
CC(=O)Oc1ccccc1C(=O)O [aspirin] | – | – | – | – | – | – | – | – | – | – | – | – | – | – | – | – | survival compared to no aspirin [2]: superior survival
O=C(c1ccccc1)c1ccc2n1CCC2C(=O)O (stereo not shown) [ketorolac] | – | – | – | – | – | – | – | – | – | – | – | – | – | – | – | – | reduction in relapses (breast cancer): 5 fold
CCCCC[C@H](O)/C=C/[C@@H]1[C@H]2C/C(=C/CCCC(=O)O)O[C@H]2C[C@H]1O [prostacyclin] | – | – | – | – | – | – | – | – | – | – | – | – | – | – | – | – | hepatic metastases [3]: complete elimination; pulmonary metastases [3]: reduction
HGF: Hepatocyte Growth Factor, cytokine added to cultured cancer cells | 58.6 | 3.29 | 0.31 | 35.9 | 17.2% | 0.2% | 80.8% | 1.58% | 16.8 percentage of gated cells | 4.89 percentage of gated cells | 2.12 percentage of gated cells | 74.9 percentage of gated cells | – | – | – | – | –
IL-6: cytokine Interleukin 6 added to cultured cancer cells | 49.1 | 5.63 | 1.35 | 43.2 | 23.5% | 0% | 74.7% | 1.46% | 35.6 percentage of gated cells | 2.66 percentage of gated cells | 6.14 percentage of gated cells | 55 percentage of gated cells | 0.1 percentages of gated subpopulations | 2.98 percentages of gated subpopulations | 0.12 percentages of gated subpopulations | 90.5 percentages of gated subpopulations | percentage of cells positive for both EpCAM and CD44 ([1]; enriched CTCs, 8 days culture): highest; proliferation of EpCAM-CD44+ cell sub-population ([1]; enriched CTCs, 8 days culture): 6.14 % gated; increase in the EpCAM+CD133− subpopulation (significance, p<0.05) ([4]; compared to control): statistically significant; enrichment of Irinotecan treated cells for cancer stem cells above non-cytokine treated controls (SW-620 cells): enriched
Il-8: cytokine IL-8 added to cultured CTCs | – | – | – | – | – | – | – | – | – | – | – | – | 0.13 percentages of gated subpopulations | 2.51 percentages of gated subpopulations | 0.09 percentages of gated subpopulations | 90.8 percentages of gated subpopulations | –
bevacizumab: antiangiogenic agent | – | – | – | – | – | – | – | – | – | – | – | – | – | – | – | – | metastatic colonization [5]: prevented metastatic colonization; relapse (colon cancer; during the year on treatment, started 29-50 days post-operatively, with adjuvant chemotherapy): delayed relapse; overall survival (colon cancer; versus chemotherapy-only group): no net benefit
B1 | – | – | – | – | – | – | – | – | – | – | – | – | 0.18 percentages of gated subpopulations | 2.29 percentages of gated subpopulations | 0.1 percentages of gated subpopulations | 90.5 percentages of gated subpopulations | –

From patent US20180194836A1, “PREVENTION OF METASTASIS AND RECURRENCE AFTER PRIMARY CANCER TREATMENT” (ENCYT TECHNOLOGIES, INC., priority 2014, published 2018)
